Measurements taken from patent US11759461B2, “Small molecule inhibitors of cancer stem cells and mesenchymal cancer types” (The Scripps Research Institute, priority 2017, dated 2023).

Experiments:
[1] = system: SNAIL-HMLE, MDA-MB-231, and SUM159; assay: Growth inhibition of additional mesenchymal breast cancer cell lines; type: cell-based, human; settings: MDA-MB-231, SUM159, express FOXC2 from endogenous locus
Description: The propagation conditions and generation of FOXC2-HMLER, HMLER, SNAIL-HMLER, SNAIL-HMLE, and SUM159 cells have been described previously (Mani (2008)). MCF-7, HepG2, HCT116, and MDA-MB-231 cells were from ATCC and maintained in DMEM medium (Corning) supplemented with 10% FBS (Corning) with Anti-anti (Gibco). The soft tissue sarcoma cell line panel was purchased from ATCC (TCP-1019) and maintained in the recommended medium for each cell type. HUVEC cells (pooled donor) were maintained in EBM-2 medium (both from Lonza Walkersville). Primary human lung fibroblasts were maintained in Fibroblast Medium (both from Sciencell Research Laboratories). For cell growth experiments, HLFs were grown in DMEM supplemented with 2% FBS and Anti-anti. For all experiments, primary human cells were used at a passage no greater than 4.
For high throughput screening, FOXC2-HMLER and HMLER cells were plated at 10^3 cells per well in white 384-well plates in 50 μL of MEGM medium (Lonza). Cells were allowed to attach for one hour before compound was transferred to each well as a DMSO solution using a 100 nL pintool head affixed to a PerkinElmer FX instrument. After 72-hour incubation, 30 μL of a Cell Titer Glo solution (diluted 1:6 in water, Promega) was dispensed into each well and luminance values were recorded using an Envision plate reader. […]

[2] = system: FOXC2-HMLER, SNAIL-HMLER, SUM159, and MDA-MB-231 cells; assay: In vitro mammosphere formation assay; type: cell-based, human; settings: 1 μM compound during assay (14 days)
Experimental: FIG. 3: Quantification of mammospheres from an in vitro mammosphere formation assay with the indicated cell types. Pretreatment indicates a 72-hour treatment with 1 μM Compound 1 before plating in mammosphere formation conditions. The expression “during assay” indicates 1 μM compound treatment during the mammosphere assay (14 days) (n=3, mean and s.d.).
Epithelial-mesenchymal transition (EMT) induction endows breast cancer cells with the ability to grow as mammospheres in culture (Mani (2008)).

VIM = target: T1, VIM (Homo sapiens, UniProt P08670); assay: Western blotting / immunofluorescence of VIM protein status in FOXC2-HMLER cells; type: cell-based
T1 construct: endogenous in cells; host or cells: FOXC2-HMLER
Experimental: Western blotting was performed essentially as described previously (M. J. Bollong et al. ACS Chem. Biol. 10 (2015) 2193-2198). Cells were collected by brief trypsinization and centrifugation at 500 g for 5 minutes. Cells were lysed by the addition of RIPA buffer with protease and phosphatase inhibitors (Roche). Lysates were incubated on ice for 30 minutes before eliminating insoluble protein content by centrifugation at 12,000 g for 5 minutes at 4° C. Protein concentrations were determined from absorbance values obtained by a Nanodrop instrument. Equal amounts of protein were then mixed with 2× loading buffer (100 mM TRIS-HCl, 1% SDS, 10% glycerol, 0.1% bromophenol blue 10%-mercaptoethanol) and exposed to 95° C. for 5 minutes. Protein was separated by SDS-PAGE using 4-12% Bis-Tris Gels (Invitrogen) and then transferred to PVDF membranes (Invitrogen) using semi-dry transfer. Membranes were blocked for 1 hour at room temperature in 5% non-fat dry milk in TBST (Tris buffered saline with 0.1% Tween 20). Membranes were incubated overnight with primary antibodies in blocking buffer overnight at the dilutions ranging from 1:500 to 1:2000. After 3 washes with TBST, membranes were then exposed to HRP-conjugated secondary antibodies (1:5000 in blocking buffer, Sigma) for one hour followed by one hour of additional washing with TBST. Relative protein content was visualized using film and SuperSignal West Dura Substrate. For VIM degradation blots, 20-60 μg of protein content was loaded per gel lane and the anti-VIM antibody V9 (ab8069) was used to blot for VIM protein content. Phospho-protein blots were performed as above with the exception that primary antibodies were incubated in 5% bovine serum albumin in TBST instead of milk.
We performed Western blotting analysis of FOXC2-HMLER cells treated for 24 hours with Compound 1 with commercially available antibodies targeting specific phosphorylated VIM species (P-S39, P-S56, P-S83).
In contrast, only a small fraction of cells undergoing mitosis stained positive for P-S56-VIM in DMSO-treated controls, consistent with previous reports identifying phosphorylation at S56 as a modification catalyzed by cyclin dependent kinase 1 (CDK1; FIG. 6) (T. Yamaguchi, T. et al., J. Cell Biol. 171 (2005) 431-436.

[3] = FOXC2-HMLER cells, 24 hours, 500 nM, Western blotting
[4] = FOXC2-HMLER cells, Western blotting

T1 sequence (P08670 whole entry): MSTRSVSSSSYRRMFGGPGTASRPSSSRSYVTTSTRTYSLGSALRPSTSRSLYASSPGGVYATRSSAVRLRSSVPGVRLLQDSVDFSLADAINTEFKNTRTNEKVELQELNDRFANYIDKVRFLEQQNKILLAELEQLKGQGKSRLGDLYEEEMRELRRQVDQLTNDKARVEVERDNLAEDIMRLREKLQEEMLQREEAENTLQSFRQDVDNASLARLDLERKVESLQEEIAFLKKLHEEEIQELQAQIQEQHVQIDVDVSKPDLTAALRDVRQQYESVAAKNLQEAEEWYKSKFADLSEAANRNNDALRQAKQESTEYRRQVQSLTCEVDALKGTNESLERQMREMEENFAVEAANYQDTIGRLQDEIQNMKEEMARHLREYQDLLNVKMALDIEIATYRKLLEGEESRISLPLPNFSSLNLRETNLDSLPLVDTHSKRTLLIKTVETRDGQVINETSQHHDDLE

Clc1cccc(N2CCN(c3cnnc4c(Cl)cccc34)CC2)c1 [Compound 1, 8-chloro-4-(4-(3-chlorophenyl)piperazin-1-yl)cinnoline]
growth of additional mesenchymal breast cancer cell lines [1]: inhibit the growth
ability to form mammospheres in culture [2]: inhibited the ability
P-S39- and P-S83-VIM protein content (VIM; [3]): modest increase
steady state levels of P-S56-VIM (VIM; [3]): marked increase
dibromobimane-crosslinked dimeric VIM protein content (VIM; [4]): dramatically reduced
lower molecular weight VIM degradation products (VIM; [4]): dose-dependent accumulation
P-S56-VIM positive FOXC2-HMLER cells (VIM; immunofluorescent staining): concentration dependent increase
